Measurements reported in publication PMC8766756, “Insights on Cancer Cell Inhibition, Subcellular Activities, and Kinase Profile of Phenylacetamides Pending 1H-Imidazol-5-One Variants” (Frontiers in Pharmacology, 2022).

Key:
[1] = system: HCT116 colon cancer cell line; experiment: MTT antiproliferative assay; type: cell-based; details: Homo sapiens, HCT-116; HCT116, MTT, 72 h; read-out: IC50 ± SEM HCT116
Description: (§1) The compounds were screened for their anticancer activities against a variety of cancer cell lines. The cytotoxic effect of the compounds was evaluated using the sulforhodamine B (SRB) cytotoxicity assay for breast cancer line (MCF7) and prostate cancer cell line (PC3) ([Vichai and Kirtikara, 2006]; [Rana et al., 2021]) and 3-(4,5-dimethylthiazol-2-yl)-2,5-diphenyl-2H-tetrazolium bromide (MTT) assay for the colon cancer (HCT116) cell lines ([El-Huneidi et al., 2020]). The CellTiter-Blue® cell viability assay was performed on the various leukemia cell lines, HL60, NB4, and KG1a cells ([Akter et al., 2019]). The IC50 values are illustrated in Table 1.
(§2) MCF7 (breast), PC3 (prostate), and HCT116 (colon) cancer cell lines were obtained from ATCC, Manassas, VA, USA. Cells were grown in Roswell Park Memorial Institute-1640 (RPMI-1640) medium (Thermo Fisher Scientific, Inc., Waltham, MA, USA), supplemented with 10% heat inactivated fetal bovine serum (FBS), 50 units/mL of penicillin, and […] of streptomycin and maintained at 37°C in a humidified atmosphere containing 5% CO2. The cells were maintained as “monolayer culture” by serial subculturing.
The test compounds were evaluated for antiproliferative activity using the MTT viability assay against the HCT116 cell line. The cells were seeded in triplicate in 96-well plates at a density of 10 × 10^3 cells/mL in a total volume of 200 µL per well. 0.1% of DMSO was used as a vehicle control. Each well was treated with 2 µL of test compound, which had been preprepared as stock solutions in ethanol to furnish the concentration range of the study, 0.1–50 μM, and re-incubated for a further 72 h at 37°C in a humidified atmosphere containing 5% CO2. The culture medium was then removed, and the cells were washed with 100 µL of PBS, and 100 µL of MTT was added, to reach a final concentration of 1 mg/ml of MTT. The cells were incubated for 3 h in darkness at 37°C. After removal of MTT solution, solubilization was initiated through the addition of […] of DMSO, and the cells were maintained at room temperature in darkness for 20 min to ensure thorough color diffusion before reading the absorbance with a microplate reader at 570 nm. The results were expressed as percentage viability relative to vehicle control (100%). The dose–response curves were plotted, and the IC50 values (concentration of drug resulting in 50% reduction in cell survival) were obtained using the commercial software package Prism (GraphPad® Software, Inc., La Jolla, CA, USA). All the experiments were repeated in at least three independent experiments.

[2] = system: MCF7 breast cancer cell line; experiment: SRB cytotoxicity assay; type: cell-based, human; details: for IC50: Homo sapiens, MCF7, 72 h, MCF7, SRB, 72 h, read-out: IC50 ± SEM MCF7
Description: as §1, §2
(§3) Exponentially growing MCF7 and PC3 cells were collected using 0.25% Trypsin-EDTA and were then seeded in 96-well plates at a density of 1,000–2,000 cells/well in 10% FBS and penicillin/streptomycin supplemented RPMI-1640 medium. After 24 h, the cells were treated with different concentrations of the test compounds and incubated for 72 h at 37°C in a humidified atmosphere containing 5% CO2. Next, the cells were fixed by trichloroacetic acid (TCA) (10% final concentration in wells) directly to the wells and incubated for 1 h at 4°C, then the cells were washed with distilled water five times to remove excess TCA, media, serum proteins, and metabolites, followed by air drying. After that, the fixed cells were stained with 0.4% SRB dissolved in 1% acetic acid for 10 min at room temperature, and excess stain was removed by quickly rinsing with 1% acetic acid. The residual acetic acid was removed completely by air drying the plates for 24 h, and the dye was solubilized with Tris buffer (pH = 7.4, 10 mM) for 5 min on a shaker at 1,600 rpm. The optical density of each well was measured spectrophotometrically at 564 nm with an ELISA microplate reader (ChroMate-4300, FL, USA). The IC50 values were calculated according to the equation for Boltzman sigmoidal concentration–response curve using the nonlinear regression fitting models (GraphPad®, Prism Version 5).

[3] = system: PC3 prostate cancer cell line; experiment: SRB cytotoxicity assay; type: cell-based, human; details: Homo sapiens, 72 h, read-out: IC50 ± SEM PC3
Description: as §1, §2, §3

[4] = system: HL60 leukemia cell line; experiment: CellTiter-Blue cell viability assay; type: cell-based; details: Homo sapiens, HL-60, 48 h, read-out: IC50 ± SEM HL60
Description: as §1
HL60, NB4, and KG1a were purchased from CLS Cell Line Service GmbH (Eppelheim, Germany). All cell lines were cultured in RPMI-1640 medium supplemented with 10% FBS (Thermo Fisher Scientific) and ciprofloxacin (10 μg/ml; Cipla Limited; Mumbai, India), at 37°C with 5% CO2 in a humidified incubator.
The CellTiter-Blue® Cell Viability assay was acquired from Promega Corporation (Madison, WI, USA). The cell viability assay was performed as follows: the cells (10^4/well) were incubated with a concentration gradient of the test compounds ranging from 0.01 to 100 μM, in 96-well plates for 48 h at 37°C. Subsequently, 20 µL of the CellTiter-Blue® Cell Viability reagent was added to each well and incubated for an additional 2 h for the development of fluorescence. The fluorescence emission was measured at 590 nm using the SpectraMax® i3x Multi-Mode Microplate Reader (Molecular Devices, LLC; San Jose, CA, USA.) and plotted against the drug concentrations to determine the IC50 of the test compounds.

[5] = target: Src kinase; design: method as in Antonarakis et al., 2013; details: ref Antonarakis et al., 2013; read-out: Src kinase inhibition IC50; cited from earlier work
[6] = system: tubulin polymerization; design: method as in earlier work; details: ref Hangauer, 2007; Smolinski et al., 2018; Markham and Duggan, 2021; read-out: tubulin polymerization inhibition IC50; cited from earlier work

| Structure (SMILES) | IC50 [1] [µM] | IC50 [2] [µM] | IC50 [3] [µM] | melting point [°C] | activity relative to KIM-161 ([2]; phenyl instead of methyl, Table 1) | IC50 [4] [µM] | IC50 [5] [µM] | IC50 [6] [µM] | times less active than 4c (KIM-161) ([2]; on MCF7 and PC3 cells) |
| --- | --- | --- | --- | --- | --- | --- | --- | --- | --- |
| CC1=N/C(=C\c2ccc(Cl)cc2)C(=O)N1c1ccc(CC(=O)NCc2ccccc2)cc1 [Compound 4b, (Z)-N-Benzyl-2-(4-(4-(4-chlorobenzylidene)-2-methyl-5-oxo-4,5-dihydro-1H-imidazol-1-yl)phenyl)acetamide] | > 50 | 20.8 ± 1.35 | 6.87 ± 0.41 | 209 to 211 | – | – | – | – | – |
| COc1ccc(/C=C2\N=C(c3ccccc3)N(c3ccc(CC(=O)NCc4ccccc4)cc3)C2=O)cc1 [Compound 4g, (Z)-N-Benzyl-2-(4-(4-(4-methoxybenzylidene)-5-oxo-2-phenyl-4,5-dihydro-1H-imidazol-1-yl)phenyl)acetamide] | – | 32.1 ± 3.98 | 38.7 ± 5.01 | 193 | less than one-tenth | – | – | – | – |
| CC1=N/C(=C\c2ccccc2)C(=O)N1c1ccc(CC(=O)NCc2ccccc2)cc1 [Compound 4a, (Z)-N-Benzyl-2-(4-(4-benzylidene-2-methyl-5-oxo-4,5-dihydro-1H-imidazol-1-yl)phenyl)acetamide] | – | 11.6 ± 2.01 | 1.67 ± 0.66 | 164 to 165 | – | – | – | – | – |
| COc1cc(/C=C2\N=C(C)N(c3ccc(CC(=O)NCc4ccccc4)cc3)C2=O)ccc1O [Compound 4d, (Z)-N-Benzyl-2-(4-(4-(4-hydroxy-3-methoxybenzylidene)-2-methyl-5-oxo-4,5-dihydro-1H-imidazol-1-yl)phenyl)acetamide] | 6.13 ± 1.35 | 9.48 ± 1.16 | 5.83 ± 1.44 | – | – | 1.44 ± 0.07 | – | – | – |
| O=C(Cc1ccc(-c2ccc(OCCN3CCOCC3)cc2)cn1)NCc1ccccc1 [KX2-391, Tirbanibulin] | – | – | – | – | – | – | 0.025 | 0.25 | – |
| O=C(Cc1ccc(N2C(=O)/C(=C/c3ccccc3)N=C2c2ccccc2)cc1)NCc1ccccc1 [Compound 4e, (Z)-N-Benzyl-2-(4-(4-benzylidene-5-oxo-2-phenyl-4,5-dihydro-1H-imidazol-1-yl)phenyl)acetamide] | – | 34.9 ± 8.08 | 41.7 ± 2.99 | 218 to 219 | – | – | – | – | – |
| O=C(Cc1ccc(N2C(=O)/C(=C/c3ccc(Cl)cc3)N=C2c2ccccc2)cc1)NCc1ccccc1 [Compound 4f, (Z)-N-Benzyl-2-(4-(4-(4-chlorobenzylidene)-5-oxo-2-phenyl-4,5-dihydro-1H-imidazol-1-yl)phenyl)acetamide] | – | 44.2 ± 8.67 | 74.2 ± 12.3 | 218 to 220 | – | – | – | – | – |
| COc1ccc(C=C(NC(C)=O)C(=O)Nc2ccc(CC(=O)NCc3ccccc3)cc2)cc1 (stereo in doubt) [Compound 5, (E)-2-acetamido-N-(4-(2-(benzylamino)-2-oxoethyl)phenyl)-3-(4-methoxyphenyl) acrylamide] | – | 44.3 ± 9.2 | 41.1 ± 9.55 | 189 to 200 | – | – | – | – | 20–40 times |
| COc1cc(/C=C2\N=C(c3ccccc3)N(c3ccc(CC(=O)NCc4ccccc4)cc3)C2=O)ccc1O [Compound 4h, (Z)-N-Benzyl-2-(4-(4-(4-hydroxy-3-methoxybenzylidene)-5-oxo-2-phenyl-4,5-dihydro-1H-imidazol-1-yl)phenyl)acetamide] | – | 35.1 ± 4.57 | 37.5 ± 15.4 | 109 to 112 | – | – | – | – | – |
